Laboratory results from US20250230193A1, “CYCLIC COMPOUND HAVING SELECTIVE KRAS INHIBITORY EFFECT ON HRAS AND NRAS” (CHUGAI SEIYAKU KABUSHIKI KAISHA, priority 2022, published 2025).
Where a SMILES comes first, the peptide text is derived from it. Bridges are numbered along the chain shown (N, C = ends). [ ]: non-standard residue; d: D form. The star is where a group is joined. hPhe(3-Cl-4-CF3) = N[C@@H](CCc1ccc(C(F)(F)F)c(Cl)c1)C(=O)O; NMePhe(4-Me) = CN[C@@H](Cc1ccc(C)cc1)C(=O)O; NMeD = CN[C@@H](CC(=O)O)C(=O)O; NMeL = CN[C@@H](CC(C)C)C(=O)O; NMeAib = CNC(C)(C)C(=O)O; Nle = CCCC[C@H](N)C(=O)O; Piperidide = C1CCN(*)CC1; Sar = CNCC(=O)O

Experiments:
[1] = target: GDP-bound NRAS wild-type protein (Homo sapiens, UniProt P01111); experiment: Binding to NRAS by surface plasmon resonance (SPR), Single Cycle Kinetics; settings: for NRAS/KRAS (ratio of KD value with respect to NRAS to KD value with respect to KRAS) / NRAS/KRAS (ratio of KD for GDP-bound NRAS wild-type to KD for KRAS): SPR; for NRAS/KRAS (ratio of KD value with respect to NRAS to KD value with respect to KRAS): GDP-bound NRAS wild-type vs GDP-bound KRAS wild-type
GDP-bound NRAS wild-type protein, sequence (P01111 whole entry): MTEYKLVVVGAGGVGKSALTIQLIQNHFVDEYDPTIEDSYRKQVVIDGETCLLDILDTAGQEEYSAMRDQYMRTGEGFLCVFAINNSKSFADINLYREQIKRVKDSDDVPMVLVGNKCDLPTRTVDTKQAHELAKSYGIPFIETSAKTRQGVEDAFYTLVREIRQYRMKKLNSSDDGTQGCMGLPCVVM

[2] = target: GDP-bound HRAS wild-type protein (Homo sapiens, UniProt P01112); experiment: Binding to HRAS by surface plasmon resonance (SPR), Single Cycle Kinetics; settings: for HRAS/KRAS (ratio of KD value with respect to HRAS to KD value with respect to KRAS) / HRAS/KRAS (ratio of KD for GDP-bound HRAS wild-type to KD for KRAS): SPR; for HRAS/KRAS (ratio of KD value with respect to HRAS to KD value with respect to KRAS): GDP-bound HRAS wild-type vs GDP-bound KRAS wild-type
GDP-bound HRAS wild-type protein, sequence (P01112 whole entry): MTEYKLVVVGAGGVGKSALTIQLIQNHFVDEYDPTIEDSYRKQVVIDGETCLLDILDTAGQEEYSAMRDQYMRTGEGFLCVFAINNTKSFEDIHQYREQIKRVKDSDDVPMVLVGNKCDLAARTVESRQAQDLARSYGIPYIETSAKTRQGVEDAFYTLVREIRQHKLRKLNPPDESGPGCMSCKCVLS

SMILES | NRAS/KRAS (ratio of KD value with respect to NRAS to KD value with respect to KRAS) [1] | HRAS/KRAS (ratio of KD value with respect to HRAS to KD value with respect to KRAS) [2] | further results
CCO[C@@H]1C[C@H]2C(=O)NC3(CC(C)(C)C3)C(=O)N(C)[C@@H](C(CC)CC)C(=O)N(C)[C@H](C(=O)N(C)C)CC(=O)N(C)[C@@H](CC3CCC3)C(=O)N[C@@H]([C@@H](C)CC)C(=O)N(C)CC(=O)N(C)[C@H]3C/C=C\CCN(C3=O)[C@@H](Cc3ccc(C(F)(F)F)cc3)C(=O)N(C)CC(=O)N[C@@H](CCc3ccc(C(F)(F)F)c(OC)c3)C(=O)N2C1 [PP2164] | A (a compound having 10 or more and less than 20 is denoted as A) | A (a compound having 10 or more and less than 20 is denoted as A) | 
CCO[C@@H]1C[C@H]2C(=O)NC3(CCC3)C(=O)N(C)[C@@H](CC(C)(C)C)C(=O)N(C)[C@H](C(=O)N3CCCC3)CC(=O)N(C)[C@@H](CC)C(=O)N[C@@H]([C@@H](C)CC)C(=O)N(C)CC(=O)N(C)[C@H]3C/C=C\CCN(C3=O)[C@@H](CC3CCCCC3)C(=O)N(C)CC(=O)N[C@@H](CCc3cc(F)c(C(F)(F)F)c(F)c3)C(=O)N2C1 [PP2772] |  |  | NRAS/KRAS (ratio of KD value with respect to GDP-bound NRAS wild-type protein to KD value with respect to KRAS) ([1]; KD ratio NRAS/KRAS, class symbols): B (a compound having 3 or more and less than 10 is denoted as B); HRAS/KRAS (ratio of KD value with respect to GDP-bound HRAS wild-type protein to KD value with respect to KRAS) ([2]; KD ratio HRAS/KRAS, class symbols): B (a compound having 3 or more and less than 10 is denoted as B)
CCCN1C(=O)[C@@H]2CCN2C(=O)[C@H](C)N(C)C(=O)[C@H]([C@@H](C)CC)NC(=O)[C@H](CC(C)C)N(C)C(=O)C[C@@H](C(=O)N2CCOCC2)N(C)C(=O)[C@H](C2CCCC2)N(C)C(=O)C2(CCCC2)NC(=O)[C@@H]2C[C@H](O)CN2C(=O)[C@H](CCc2ccc(C(F)(F)F)c(Cl)c2)NC(=O)CN(C)C(=O)[C@@H]1Cc1ccc(C(F)(F)F)cc1 (stereo in doubt) [PP0238] |  |  | NRAS/KRAS (ratio of KD for GDP-bound NRAS wild-type to KD for KRAS) ([1]; KD ratio NRAS/KRAS): C (A compound having a KD ratio of 0.1 or more and less than 3 is denoted as C); HRAS/KRAS (ratio of KD for GDP-bound HRAS wild-type to KD for KRAS) ([2]; KD ratio HRAS/KRAS): C (A compound having a KD ratio of 0.1 or more and less than 3 is denoted as C)
CCO[C@@H]1C[C@H]2C(=O)NC3(CC(C)(C)C3)C(=O)N(C)[C@@H](C(CC)CC)C(=O)N(C)[C@H](C(=O)N(C)C)CC(=O)N(C)[C@@H](CC(C)C)C(=O)N[C@@H]([C@@H](C)CC)C(=O)N(C)CC(=O)N(C)[C@H]3C/C=C\CCN(C3=O)[C@@H](Cc3ccc(C(F)(F)F)cc3)C(=O)N(C)CC(=O)N[C@@H](CCc3ccc(C(F)(F)F)c(OC)c3)C(=O)N2C1 [PP2161] | AA (a compound having 20 or more is denoted as AA) | A (a compound having 10 or more and less than 20 is denoted as A) | 
CCC[C@H]1C(=O)N[C@@H]([C@@H](C)CC)C(=O)N(C)CC(=O)N(C)[C@H]2C/C=C\CCN(C2=O)[C@@H](Cc2ccc(C)cc2)C(=O)N(C)CC(=O)N[C@@H](CCc2ccc(C(F)(F)F)c(Cl)c2)C(=O)N2C[C@H](CC)C[C@H]2C(=O)NC2(CC(C)(C)C2)C(=O)N(C)[C@@H](C2CCCC2)C(=O)N(C)[C@H](C(=O)N(C)C)CC(=O)N1C [PP2212] | A (a compound having 10 or more and less than 20 is denoted as A) | B (a compound having 3 or more and less than 10 is denoted as B) | 
CCOC[C@H]1C(=O)N[C@@H]([C@@H](C)CC)C(=O)N(C)CC(=O)N(C)[C@H]2C/C=C\CCN(C2=O)[C@@H](Cc2ccc(C)cc2)C(=O)N(C)CC(=O)N[C@@H](CCc2ccc(C(F)(F)F)c(Cl)c2)C(=O)N2C[C@H](OCC)C[C@H]2C(=O)NC2(CC(C)(C)C2)C(=O)N(C)[C@@H](C2CCCC2)C(=O)N(C)[C@H](C(=O)N(C)C)CC(=O)N1C [PP2395] | A (a compound having 10 or more and less than 20 is denoted as A) | B (a compound having 3 or more and less than 10 is denoted as B) | 
CCCC[C@@H]1NC(=O)[C@H](CCc2ccc(C(F)(F)F)c(Cl)c2)NC(=O)CN(C)C(=O)[C@H](Cc2ccc(C)cc2)N(C)C(=O)CN(C)C(=O)CN(C)C(=O)[C@H]([C@@H](C)CC)NC(=O)[C@H](CC(C)C)N(C)C(=O)C[C@@H](C(=O)N2CCCCC2)N(C)C(=O)[C@H](CC(C)C)NC(=O)C(C)(C)N(C)C1=O [PP0049] ([NMeL]I[Sar][Sar][NMePhe(4-Me)][Sar][hPhe(3-Cl-4-CF3)][Nle][NMeAib]L[NMeD]-Piperidide; lactam N-11) |  |  | NRAS/KRAS (ratio of KD for GDP-bound NRAS wild-type to KD for KRAS) ([1]; KD ratio NRAS/KRAS): C (A compound having a KD ratio of 0.1 or more and less than 3 is denoted as C); HRAS/KRAS (ratio of KD for GDP-bound HRAS wild-type to KD for KRAS) ([2]; KD ratio HRAS/KRAS): C (A compound having a KD ratio of 0.1 or more and less than 3 is denoted as C)
CCC[C@H]1C(=O)N[C@@H]([C@@H](C)CC)C(=O)N(C)CC(=O)N(C)[C@H]2C/C=C\CCN(C2=O)[C@@H](CC2CCC(F)(F)CC2)C(=O)N(C)CC(=O)N[C@@H](CCc2ccc(C(F)(F)F)c(OC)c2)C(=O)N2C[C@@H](C)C[C@H]2C(=O)NC2(CC(C)(C)C2)C(=O)N(C)[C@@H](C(CC)CC)C(=O)N(C)[C@H](C(=O)N(C)C)CC(=O)N1C [PP2497] | A (a compound having 10 or more and less than 20 is denoted as A) | A (a compound having 10 or more and less than 20 is denoted as A) | 
